Data from patent publication US10363239B2, “Method for inhibiting growth of cancer cells” (Pain Therapeutics, Inc., priority 2013, dated 2019).
pIC50: −log10 of the molar value.

Key:
[1] = tested on: BxPC3 pancreatic cancer cell implants; experiment: Xenograft tumor size study; details: gemcitabine at 50 mg/kg i.p. b.i.d.
[2] = tested on: mu opiate receptor (MOR); experiment: MOR agonist activity using [35S]GTPγS binding assay in striatal membranes; format: biochemical
Procedure, shortened: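 Striatal membranes (200 μg) were preincubated 5 min at 30 °C in HEPES pH 7.5 with 100 mM NaCl, 1 mM MgCl2 and 0.5 nM [35S]GTPγS, then 5 min more with 0.1–10 μM compound. Gαo was immunoprecipitated and bound radioactivity counted by scintillation.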

[3] = tested on: more than 65 receptors; experiment: Standard binding assay on more than 65 receptors; details: 10 μM concentration
[4] = tested on: non-small cell lung cancer cell lines; experiment: Glucose utilization; format: cell-based, human; details: data not shown
Protocol: (§1) To determine the effect of Compound C0105 on glucose utilization, the cancer and primary normal cells were plated extremely thinly (10%). Once cells attached, Compound C0105 was added at 0.1, 0.5, 1 or 5 nM in the medium twice daily (6 hours apart) for 4 days. The cells were serum-deprived (glucose deprived) for 2 hours. Cells were then rinsed with 1 ml PBS and glucose uptake was assessed by contacting the cells with [^3H]glucose (0.01 uCi/l ml) in Kreb's Ringer for 2 hours. Cells were then rinsed with 1 ml PBS 3 times, scraped off and their glucose content counted by liquid scintillation spectrophotometry.
. Primary lung fibroblast cells were used as control, non-cancerous cells to illustrate the difference in effects observed (FIG. 1C, FIGS. 1H-1I).

[5] = tested on: melanoma cells (A2058); experiment: [3H]glucose uptake; format: cell-based, human; details: C0105 0.1-5 nM, other compounds 1 and 5 nM, twice daily for 4 days
Protocol: as §1, with “FIG. 1A through FIG. 1M illustrate the effects of various FLNA-binding compounds on glucose uptake in glioblastoma, melanoma, breast and pancreatic cancer cell lines, along with appropriate non-cancerous primary cell controls. Cells were grown in the absence or presence of 0.1-5 nM indicated compounds for 4 days. Following brief washes with PBS, cells were serum-deprived for 4 hours and then incubated in oxygenated Kreb's Ringer containing 0.1 μCi [^3H]glucose for 2 hours under constant oxygenation. The reaction was terminated by removal of the incubation medium, and cells were washed and scraped off to determine the amounts of [^3H]glucose in cells by scintillation spectrometry. […] N=5-6. […] . […] . To” for “To”
(§2) Both glioblastoma and melanoma cells were plated extremely thinly. Once cells attached, Compound C0105 was added at 0.1, 0.5, 1 and 5 nM, whereas the other compounds were present at 1 and 5 nM in the medium twice daily (6 hours apart) for 4 days. The cells were serum-deprived (glucose deprived) for 2 hours. Cells were then rinsed with 1 ml PBS and glucose uptake was assessed by contacting the cells with [3H]glucose (0.01 uCi/l ml) of Kreb's Ringer for 2 hours. Cells were then rinsed with 1 ml PBS 3 times, scraped off and their glucose contents counted by liquid scintillation spectrophotometry.

[6] = tested on: primary lung fibroblasts; experiment: [3H]glucose uptake; format: cell-based, human; details: C0105 0.1-5 nM, other compounds 1 or 5 nM; 4 days
Protocol: as §1, with “FIG. 1A through FIG. 1M illustrate the effects of various FLNA-binding compounds on glucose uptake in glioblastoma, melanoma, breast and pancreatic cancer cell lines, along with appropriate non-cancerous primary cell controls. Cells were grown in the absence or presence of 0.1-5 nM indicated compounds for 4 days. Following brief washes with PBS, cells were serum-deprived for 4 hours and then incubated in oxygenated Kreb's Ringer containing 0.1 μCi [^3H]glucose for 2 hours under constant oxygenation. The reaction was terminated by removal of the incubation medium, and cells were washed and scraped off to determine the amounts of [^3H]glucose in cells by scintillation spectrometry. […] N=5-6. […] . […] . To” for “To”
as §2

[7] = tested on: glioblastoma cells (U-87 MG); experiment: [3H]glucose uptake; format: cell-based, human; details: C0105 0.1-5 nM, other compounds 1 and 5 nM, twice daily for 4 days
Protocol: as §1, with “FIG. 1A through FIG. 1M illustrate the effects of various FLNA-binding compounds on glucose uptake in glioblastoma, melanoma, breast and pancreatic cancer cell lines, along with appropriate non-cancerous primary cell controls. Cells were grown in the absence or presence of 0.1-5 nM indicated compounds for 4 days. Following brief washes with PBS, cells were serum-deprived for 4 hours and then incubated in oxygenated Kreb's Ringer containing 0.1 μCi [^3H]glucose for 2 hours under constant oxygenation. The reaction was terminated by removal of the incubation medium, and cells were washed and scraped off to determine the amounts of [^3H]glucose in cells by scintillation spectrometry. […] N=5-6. […] . […] . To” for “To”
as §2

[8] = molecular target: sigma σ1 receptor (Homo sapiens, UniProt Q99720); experiment: Standard receptor binding assay; details: 10 μM concentration
Sequence of sigma σ1 receptor (Q99720 whole entry): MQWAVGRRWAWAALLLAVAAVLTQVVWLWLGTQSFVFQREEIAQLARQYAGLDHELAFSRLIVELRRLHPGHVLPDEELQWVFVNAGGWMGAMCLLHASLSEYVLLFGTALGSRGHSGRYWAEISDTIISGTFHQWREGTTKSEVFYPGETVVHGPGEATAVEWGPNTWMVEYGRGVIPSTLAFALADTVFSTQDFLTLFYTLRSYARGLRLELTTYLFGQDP

[9] = molecular target: FLNA pentapeptide of SEQ ID NO: 1 (Bn-VAKGL) (Homo sapiens, UniProt P21333); experiment: FITC-NLX-based FLNA screening assay (inhibition of FITC-naloxone binding to Bn-VAKGL on streptavidin plates); details: 10 nM FITC-NLX, read-out: Percent Binding Inhibition; for inhibition at 0.01 µM: FLNA-binding compound 0.01 μM; for inhibition at 0.1 µM: FLNA-binding compound 0.1 μM; for inhibition at 1 µM: FLNA-binding compound 1 μM
[10] = tested on: adrenergic α1 receptors; experiment: Standard receptor binding assay; details: 10 μM concentration
[11] = molecular target: biotinylated pentapeptide (Bn-VAKGL) of SEQ ID NO: 1 (Homo sapiens, UniProt P21333); experiment: Inhibition of [3H]NLX binding to biotinylated pentapeptide (Bn-VAKGL); details: read-out: IC50, inhibition of [3H]NLX binding to Bn-VAKGL; single affinity state
Description: Data are derived from 6 studies, each using a different set of A7 cells.

Question: Which Tumor growth [1] does the source give for `Nc1ccn([C@@H]2O[C@H](CO)[C@@H](O)C2(F)F)c(=O)n1` [gemcitabine] here?
Answer: slowed growth but did not shrink BxPC3 xenograft tumors

Question: `O=C1CN(Cc2ccccc2)C2(CCN(S(=O)(=O)c3cc(Cl)c(O)c(Cl)c3)CC2)N1` [Compound C0139M] was tested. Which “% DAMGO (0.1 μM)” value ([2]; Series C-1, 0.1 μM compound, relative to DAMGO) did it give?
Answer: 106.2%

Question: And the “% DAMGO + BFNA” value ([2]; Series C-1, 1 μM compound + β-FNA, relative to DAMGO + BFNA)?
Answer: 129.8%

Question: What about the “% DAMGO (1 μM)” value ([2]; Series C-1, 1 μM compound, relative to DAMGO) of the same molecule?
Answer: 102.2%

Question: What about the “Binding to any of more than 65 assayed receptors” value [3] of the same molecule?
Answer: no significant binding

Question: What about the Glucose utilization [4] of the same molecule?
Answer: decreased the elevated glucose utilization

Question: And the Glucose utilization [5]?
Answer: decreased the elevated glucose utilization

Question: And the “Glucose uptake / glucose content” value [6]?
Answer: no significant inhibition in glucose content

Question: And the Glucose utilization [7]?
Answer: decreased the elevated glucose utilization

Question: For `CC1CN(CC(O)COc2cccc(F)c2)CC(C)O1` (stereo not shown) [Compound A0049], which “Activity at sigma σ1 receptor” value [8] is on record?
Answer: antagonist

Question: And the “MOR agonist activity ([35S]GTPγS binding), FLNA-Binding Compound as Agonist 0.1 μM” value ([2]; 0.1 μM compound)?
Answer: 232.3%

Question: And the “% DAMGO (0.1 μM)” value ([2]; 0.1 μM compound relative to DAMGO)?
Answer: 118.4%

Question: What about the “MOR agonist activity ([35S]GTPγS binding), FLNA-Binding Compound as Agonist 1 μM” value ([2]; 1 μM compound) of the same molecule?
Answer: 370.3%

Question: And the “MOR agonist activity ([35S]GTPγS binding), FLNA-Binding Compound as Agonist 1 μM + BFNA” value ([2]; 1 μM compound + 1 μM β-funaltrexamine)?
Answer: 107.1%

Question: What about the “% DAMGO + BFNA” value ([2]; 1 μM compound + BFNA relative to DAMGO + BFNA) of the same molecule?
Answer: 144.9%

Question: And the “% DAMGO (1 μM)” value ([2]; 1 μM compound relative to DAMGO)?
Answer: 134.2%

Question: And the inhibition at 0.01 µM [9]?
Answer: 46.2%

Question: And the inhibition at 0.1 µM [9]?
Answer: 49.4%

Question: And the inhibition at 1 µM [9]?
Answer: 49.3%

Question: Which “Activity at sigma σ1 receptor” value [8] does the source give for `COc1ccc(S(=O)(=O)N2CCOC23CCNCC3)cc1` [Compound C0027] here?
Answer: antagonist

Question: And the “% DAMGO (0.1 μM)” value ([2]; Series C-2, 0.1 μM compound, relative to DAMGO)?
Answer: 121.3%

Question: And the “MOR agonist activity, percent [35S]GTPγS binding at the stated compound concentration” value (“MOR agonist activity, percent” below) ([2]; Series C-2, 0.1 μM compound, [35S]GTPγS binding to Gαo, striatal membranes)?
Answer: 233.2%

Question: And the “MOR agonist activity, percent” value ([2]; Series C-2, 1 μM compound + 1 μM β-FNA)?
Answer: 72.2%

Question: What about the “% DAMGO + BFNA” value ([2]; Series C-2, 1 μM compound + β-FNA, relative to DAMGO + BFNA) of the same molecule?
Answer: 164.5%

Question: What about the “% DAMGO (1 μM)” value ([2]; Series C-2, 1 μM compound, relative to DAMGO) of the same molecule?
Answer: 115.0%

Question: What about the “MOR agonist activity, percent” value ([2]; Series C-2, 1 μM compound, [35S]GTPγS binding to Gαo, striatal membranes) of the same molecule?
Answer: 313.9%

Question: What about the “Activity at adrenergic α1 receptors” value [10] of the same molecule?
Answer: antagonist

Question: And the inhibition at 0.01 µM [9]?
Answer: 50.8%

Question: And the inhibition at 0.1 µM [9]?
Answer: 61.2%

Question: And the inhibition at 1 µM [9]?
Answer: 63.8%

Question: How did the pIC50 [11] turn out when `O=C1CC[C@@]2(O)[C@H]3Cc4ccc(O)c5c4[C@@]2(CCN3CC2CC2)[C@H]1O5` [Naltrexone] was run?
Answer: 10.37
